Laboratory results as given in patent US20260356819A1, “OXOISOINDOLINYL-SUBSTITUTED […] DERIVATIVE AND USE THEREOF” (GLUETACS THERAPEUTICS (SHANGHAI) CO., LTD., priority 2023, published 2026).

Tests used:
Assay type in all cases: cell-based
Conditions in all cases: compounds at 50 nM and 500 nM
IKZF1 = molecular target: T1, IKZF1 (Homo sapiens, UniProt Q13422+Q96SW2); test: Western blot degradation of IKZF1 in hPBMCs (24 h)
T1 construct: The supernatant was aspirated as the extracted total cell protein; endogenous in cells; host or cells: human peripheral blood mononuclear cells (hPBMCs)
Summary of the method: (§1)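 In this assay, each compound was incubated with human PBMCs for 24 h at 50 nM and 500 nM. Target levels were measured by Western blot densitometry normalised to an internal control.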

IKZF3 = molecular target: T2, IKZF3 (Homo sapiens, UniProt Q96SW2+Q9UKT9); test: Western blot degradation of IKZF3 in hPBMCs (24 h)
T2 construct: The supernatant was aspirated as the extracted total cell protein; endogenous in cells; host or cells: human peripheral blood mononuclear cells (hPBMCs)
T2 sequence (Q9UKT9 whole entry): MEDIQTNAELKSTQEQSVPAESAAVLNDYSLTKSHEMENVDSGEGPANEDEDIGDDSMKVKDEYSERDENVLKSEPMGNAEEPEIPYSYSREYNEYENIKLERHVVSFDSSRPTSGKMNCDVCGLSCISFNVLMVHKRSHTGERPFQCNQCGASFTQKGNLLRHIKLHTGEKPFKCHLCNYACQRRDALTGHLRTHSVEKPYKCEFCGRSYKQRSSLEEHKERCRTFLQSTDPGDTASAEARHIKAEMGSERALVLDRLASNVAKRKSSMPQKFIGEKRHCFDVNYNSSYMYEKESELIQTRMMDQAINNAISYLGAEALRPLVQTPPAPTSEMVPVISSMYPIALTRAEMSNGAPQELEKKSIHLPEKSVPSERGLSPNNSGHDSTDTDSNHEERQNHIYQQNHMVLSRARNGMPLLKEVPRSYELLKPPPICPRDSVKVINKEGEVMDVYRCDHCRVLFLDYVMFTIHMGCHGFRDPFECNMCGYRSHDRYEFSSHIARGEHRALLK
T2 sequence (Q96SW2 whole entry): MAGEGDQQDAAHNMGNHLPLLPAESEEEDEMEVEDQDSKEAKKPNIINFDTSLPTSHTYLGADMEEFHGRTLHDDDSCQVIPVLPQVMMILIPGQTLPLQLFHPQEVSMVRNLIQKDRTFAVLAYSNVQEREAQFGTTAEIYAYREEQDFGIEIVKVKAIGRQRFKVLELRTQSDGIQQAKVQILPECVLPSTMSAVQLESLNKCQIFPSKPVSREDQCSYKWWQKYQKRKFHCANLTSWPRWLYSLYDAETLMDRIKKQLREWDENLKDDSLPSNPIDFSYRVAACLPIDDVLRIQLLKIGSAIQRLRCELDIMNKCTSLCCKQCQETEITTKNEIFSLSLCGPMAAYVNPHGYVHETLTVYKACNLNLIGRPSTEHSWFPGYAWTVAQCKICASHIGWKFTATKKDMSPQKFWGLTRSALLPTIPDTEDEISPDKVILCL
T2 sequence (Q16531 whole entry partner): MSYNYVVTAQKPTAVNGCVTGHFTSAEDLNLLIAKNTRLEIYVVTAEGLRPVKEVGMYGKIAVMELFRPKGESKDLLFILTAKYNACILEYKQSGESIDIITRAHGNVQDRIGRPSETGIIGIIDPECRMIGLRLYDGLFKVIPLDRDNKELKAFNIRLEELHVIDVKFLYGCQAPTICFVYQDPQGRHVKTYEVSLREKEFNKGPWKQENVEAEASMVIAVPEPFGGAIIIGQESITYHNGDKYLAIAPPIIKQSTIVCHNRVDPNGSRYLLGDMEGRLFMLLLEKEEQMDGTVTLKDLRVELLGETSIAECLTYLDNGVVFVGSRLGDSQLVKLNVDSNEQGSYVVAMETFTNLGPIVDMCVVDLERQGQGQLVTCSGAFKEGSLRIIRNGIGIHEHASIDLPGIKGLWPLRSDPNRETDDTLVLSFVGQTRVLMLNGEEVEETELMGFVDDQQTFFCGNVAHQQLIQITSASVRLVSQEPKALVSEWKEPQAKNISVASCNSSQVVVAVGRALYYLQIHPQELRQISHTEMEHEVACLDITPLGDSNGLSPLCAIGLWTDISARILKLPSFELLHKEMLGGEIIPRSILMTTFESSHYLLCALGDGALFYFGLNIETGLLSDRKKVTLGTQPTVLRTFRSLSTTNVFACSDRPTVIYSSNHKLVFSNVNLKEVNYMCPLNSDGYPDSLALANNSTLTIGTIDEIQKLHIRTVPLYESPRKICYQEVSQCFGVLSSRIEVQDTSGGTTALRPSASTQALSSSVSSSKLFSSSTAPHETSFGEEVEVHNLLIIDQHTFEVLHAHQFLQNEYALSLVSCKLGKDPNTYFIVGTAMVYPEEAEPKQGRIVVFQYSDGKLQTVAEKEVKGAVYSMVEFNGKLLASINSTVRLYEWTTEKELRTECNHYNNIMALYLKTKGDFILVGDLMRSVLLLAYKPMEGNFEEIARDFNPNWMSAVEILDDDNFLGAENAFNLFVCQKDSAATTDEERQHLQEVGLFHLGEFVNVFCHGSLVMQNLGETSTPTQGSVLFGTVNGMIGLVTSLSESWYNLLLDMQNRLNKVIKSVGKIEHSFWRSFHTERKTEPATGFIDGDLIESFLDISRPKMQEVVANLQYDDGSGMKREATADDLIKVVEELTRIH
Summary of the method: as §1

CK1α = molecular target: T3, CK1α (Homo sapiens, UniProt P48729+Q96SW2); test: Western blot degradation of CK1α in hPBMCs (24 h)
T3 construct: The supernatant was aspirated as the extracted total cell protein; endogenous in cells; host or cells: human peripheral blood mononuclear cells (hPBMCs)
T3 sequence (P48729 whole entry): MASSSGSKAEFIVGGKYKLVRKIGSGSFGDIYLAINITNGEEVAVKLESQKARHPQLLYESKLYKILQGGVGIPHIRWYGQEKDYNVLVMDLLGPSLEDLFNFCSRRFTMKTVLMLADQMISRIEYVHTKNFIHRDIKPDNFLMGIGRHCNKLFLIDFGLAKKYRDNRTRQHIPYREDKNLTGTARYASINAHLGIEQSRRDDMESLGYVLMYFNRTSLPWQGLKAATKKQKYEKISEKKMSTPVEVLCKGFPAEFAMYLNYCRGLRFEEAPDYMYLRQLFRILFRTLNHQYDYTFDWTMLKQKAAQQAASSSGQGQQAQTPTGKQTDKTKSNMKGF
T3 sequence (Q96SW2 whole entry): as the sequence (Q96SW2 whole entry) above
T3 sequence (Q16531 whole entry partner): as the sequence (Q16531 whole entry partner) above
Summary of the method: as §1

GSPT1 = molecular target: T4, GSPT1 (Homo sapiens, UniProt P15170+Q96SW2); test: Western blot degradation of GSPT1 in hPBMCs (24 h)
T4 construct: The supernatant was aspirated as the extracted total cell protein; endogenous in cells; host or cells: human peripheral blood mononuclear cells (hPBMCs)
T4 sequence (P15170 whole entry): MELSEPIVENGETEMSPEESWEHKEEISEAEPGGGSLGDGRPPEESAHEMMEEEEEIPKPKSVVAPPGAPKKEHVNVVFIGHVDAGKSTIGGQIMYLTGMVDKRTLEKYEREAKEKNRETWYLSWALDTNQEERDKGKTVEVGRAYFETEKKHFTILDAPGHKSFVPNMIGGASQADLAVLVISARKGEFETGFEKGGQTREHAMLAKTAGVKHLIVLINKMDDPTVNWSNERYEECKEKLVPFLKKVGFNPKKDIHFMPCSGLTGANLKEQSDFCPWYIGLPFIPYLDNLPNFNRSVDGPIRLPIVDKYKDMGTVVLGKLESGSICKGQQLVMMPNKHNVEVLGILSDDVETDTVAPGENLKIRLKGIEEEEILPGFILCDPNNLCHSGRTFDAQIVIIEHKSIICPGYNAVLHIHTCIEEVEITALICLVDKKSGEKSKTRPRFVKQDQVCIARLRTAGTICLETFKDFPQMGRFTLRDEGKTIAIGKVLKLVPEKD
T4 sequence (Q96SW2 whole entry): as the sequence (Q96SW2 whole entry) above
T4 sequence (Q16531 whole entry partner): as the sequence (Q16531 whole entry partner) above
Summary of the method: as §1

WEE1 = molecular target: T5, WEE1 (Homo sapiens, UniProt P30291+Q96SW2); test: Western blot degradation of WEE1 in hPBMCs (24 h)
T5 construct: The supernatant was aspirated as the extracted total cell protein; endogenous in cells; host or cells: human peripheral blood mononuclear cells (hPBMCs)
T5 sequence (P30291 whole entry): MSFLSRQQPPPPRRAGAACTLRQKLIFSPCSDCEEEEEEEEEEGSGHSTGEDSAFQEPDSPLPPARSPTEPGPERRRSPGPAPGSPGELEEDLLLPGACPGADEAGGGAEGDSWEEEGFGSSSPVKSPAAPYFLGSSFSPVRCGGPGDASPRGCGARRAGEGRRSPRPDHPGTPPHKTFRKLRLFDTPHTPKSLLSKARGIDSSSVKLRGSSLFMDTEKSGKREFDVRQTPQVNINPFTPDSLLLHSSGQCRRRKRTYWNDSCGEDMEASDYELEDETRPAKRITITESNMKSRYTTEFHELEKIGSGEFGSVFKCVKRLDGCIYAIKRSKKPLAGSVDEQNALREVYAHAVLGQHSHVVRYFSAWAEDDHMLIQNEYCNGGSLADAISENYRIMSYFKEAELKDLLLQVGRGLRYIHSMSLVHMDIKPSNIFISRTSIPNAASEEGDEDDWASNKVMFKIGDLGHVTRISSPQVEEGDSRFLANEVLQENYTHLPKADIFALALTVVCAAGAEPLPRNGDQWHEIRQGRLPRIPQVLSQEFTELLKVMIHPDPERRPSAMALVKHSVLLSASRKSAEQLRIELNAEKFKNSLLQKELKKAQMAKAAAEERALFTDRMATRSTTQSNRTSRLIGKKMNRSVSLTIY
T5 sequence (Q96SW2 whole entry): as the sequence (Q96SW2 whole entry) above
T5 sequence (Q16531 whole entry partner): as the sequence (Q16531 whole entry partner) above
Summary of the method: as §1

IKZF2 = molecular target: T6, IKZF2 (Homo sapiens, UniProt Q96SW2+Q9UKS7); test: Western blot degradation of IKZF2 in hPBMCs (24 h)
T6 construct: The supernatant was aspirated as the extracted total cell protein; endogenous in cells; host or cells: human peripheral blood mononuclear cells (hPBMCs)
T6 sequence (Q9UKS7 whole entry): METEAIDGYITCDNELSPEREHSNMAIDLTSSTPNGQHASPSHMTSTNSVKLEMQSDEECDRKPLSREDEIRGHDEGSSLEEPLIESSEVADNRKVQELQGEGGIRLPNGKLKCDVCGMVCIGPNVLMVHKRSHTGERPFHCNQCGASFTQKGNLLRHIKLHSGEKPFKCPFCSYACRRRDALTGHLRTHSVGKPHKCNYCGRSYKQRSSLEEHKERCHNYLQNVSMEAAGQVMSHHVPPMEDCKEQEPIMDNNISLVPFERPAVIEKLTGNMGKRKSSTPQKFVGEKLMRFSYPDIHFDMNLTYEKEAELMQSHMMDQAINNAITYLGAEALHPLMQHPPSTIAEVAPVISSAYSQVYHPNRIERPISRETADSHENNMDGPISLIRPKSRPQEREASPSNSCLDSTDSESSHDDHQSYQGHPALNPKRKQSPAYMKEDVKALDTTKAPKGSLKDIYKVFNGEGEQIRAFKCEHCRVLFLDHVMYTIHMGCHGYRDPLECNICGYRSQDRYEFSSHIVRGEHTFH
T6 sequence (Q96SW2 whole entry): as the sequence (Q96SW2 whole entry) above
T6 sequence (Q16531 whole entry partner): as the sequence (Q16531 whole entry partner) above
Summary of the method: as §1

Structure (SMILES)	IKZF1 substrate protein remaining % (IKZF1)	IKZF3 substrate protein remaining % (IKZF3)	CK1α substrate protein remaining % (CK1α)	GSPT1 substrate protein remaining % (GSPT1)	WEE1 substrate protein remaining % (WEE1)	IKZF2 substrate protein remaining % (IKZF2)
Cc1ccc(N2CCN(Cc3ccc4c(c3)CN(N3CCC(=O)NC3=O)C4=O)CC2)c(C)c1 [GT-06882, 1-(5-((4-(2,4-dimethylphenyl)piperazin-1-yl)methyl)-1-oxoisoindolin-2-yl)dihydropyrimidine-2,4(1H,3H)-dione]	A (0% ≤ substrate protein remaining % ≤80%)	B (80%< substrate protein remaining % ≤100%)	B (80%< substrate protein remaining % ≤100%)	A (0% ≤ substrate protein remaining % ≤80%)	A (0% ≤ substrate protein remaining % ≤80%)	B (80%< substrate protein remaining % ≤100%)
Cc1ccc(Cl)cc1N1CCN(Cc2ccc3c(c2)CN(N2CCC(=O)NC2=O)C3=O)CC1 [GT-06883, 1-(5-((4-(5-chloro-2-methylphenyl)piperazin-1-yl)methyl)-1-oxoisoindolin-2-yl)dihydropyrimidine-2,4(1H,3H)-dione]	A (0% ≤ substrate protein remaining % ≤80%)	B (80%< substrate protein remaining % ≤100%)	B (80%< substrate protein remaining % ≤100%)	A (0% ≤ substrate protein remaining % ≤80%)	A (0% ≤ substrate protein remaining % ≤80%)	B (80%< substrate protein remaining % ≤100%)
O=C1CCN(N2Cc3cc(CN4CCC(c5ccc(Br)cc5)CC4)ccc3C2=O)C(=O)N1 [GT-06886, 1-(5-((4-(4-bromophenyl)piperidin-1-yl)methyl)-1-oxoisoindolin-2-yl)dihydropyrimidine-2,4(1H,3H)-dione]	B (80%< substrate protein remaining % ≤100%)	B (80%< substrate protein remaining % ≤100%)	B (80%< substrate protein remaining % ≤100%)	A (0% ≤ substrate protein remaining % ≤80%)	B (80%< substrate protein remaining % ≤100%)	A (0% ≤ substrate protein remaining % ≤80%)
O=C1CCN(N2Cc3cc(CN4CCC(c5ccccc5Cl)CC4)ccc3C2=O)C(=O)N1 [GT-06887, 1-(5-((4-(2-chlorophenyl)piperidin-1-yl)methyl)-1-oxoisoindolin-2-yl)dihydropyrimidine-2,4(1H,3H)-dione]	B (80%< substrate protein remaining % ≤100%)	B (80%< substrate protein remaining % ≤100%)	B (80%< substrate protein remaining % ≤100%)	A (0% ≤ substrate protein remaining % ≤80%)	A (0% ≤ substrate protein remaining % ≤80%)	A (0% ≤ substrate protein remaining % ≤80%)
O=C1CCN(N2Cc3cc(CN4CCC(c5ccc(Cl)cc5)CC4)ccc3C2=O)C(=O)N1 [GT-06888, 1-(5-((4-(4-chlorophenyl)piperidin-1-yl)methyl)-1-oxoisoindolin-2-yl)dihydropyrimidine-2,4(1H,3H)-dione]	B (80%< substrate protein remaining % ≤100%)	B (80%< substrate protein remaining % ≤100%)	B (80%< substrate protein remaining % ≤100%)	A (0% ≤ substrate protein remaining % ≤80%)	A (0% ≤ substrate protein remaining % ≤80%)	A (0% ≤ substrate protein remaining % ≤80%)
O=C1CCN(N2Cc3cc(CN4CCC(c5ccccc5F)CC4)ccc3C2=O)C(=O)N1 [GT-06889, 1-(5-((4-(2-fluorophenyl)piperidin-1-yl)methyl)-1-oxoisoindolin-2-yl)dihydropyrimidine-2,4(1H,3H)-dione]	B (80%< substrate protein remaining % ≤100%)	B (80%< substrate protein remaining % ≤100%)	B (80%< substrate protein remaining % ≤100%)	A (0% ≤ substrate protein remaining % ≤80%)	A (0% ≤ substrate protein remaining % ≤80%)	A (0% ≤ substrate protein remaining % ≤80%)
O=C1CCN(N2Cc3cc(CN4CCC(c5ccc(F)cc5)CC4)ccc3C2=O)C(=O)N1 [GT-06890, 1-(5-((4-(4-fluorophenyl)piperidin-1-yl)methyl)-1-oxoisoindolin-2-yl)dihydropyrimidine-2,4(1H,3H)-dione]	B (80%< substrate protein remaining % ≤100%)	B (80%< substrate protein remaining % ≤100%)	B (80%< substrate protein remaining % ≤100%)	A (0% ≤ substrate protein remaining % ≤80%)	A (0% ≤ substrate protein remaining % ≤80%)	B (80%< substrate protein remaining % ≤100%)
O=C1CCN(N2Cc3cc(CN4CCC(c5ccccc5C(F)(F)F)CC4)ccc3C2=O)C(=O)N1 [GT-06891, 1-(1-oxo-5-((4-(2-(trifluoromethyl)phenyl)piperidin-1-yl)methyl)isoindolin-2-yl)dihydropyrimidine-2,4(1H,3H)-dione]	B (80%< substrate protein remaining % ≤100%)	B (80%< substrate protein remaining % ≤100%)	B (80%< substrate protein remaining % ≤100%)	A (0% ≤ substrate protein remaining % ≤80%)	A (0% ≤ substrate protein remaining % ≤80%)	A (0% ≤ substrate protein remaining % ≤80%)
O=C1CCN(N2C(=O)c3ccc(CN4CCC(c5cccc(F)c5Cl)CC4)cc3C2=O)C(=O)N1 [GT-06895, 5-((4-(2-chloro-3-fluorophenyl)piperidin-1-yl)methyl)-2-(2,4-dioxotetrahydropyrimidin-1(2H)-yl)isoindoline-1,3-dione]	A (0% ≤ substrate protein remaining % ≤80%)	B (80%< substrate protein remaining % ≤100%)	B (80%< substrate protein remaining % ≤100%)	B (80%< substrate protein remaining % ≤100%)	B (80%< substrate protein remaining % ≤100%)	B (80%< substrate protein remaining % ≤100%)
